Patent US10597696B2, “Detection of Niemann-Pick disease comprising detection of lysozyme and cathepsins” (UNIVERSITY OF NOTRE DAME DU LAC, priority 2013, dated 2020)
Entries after “also recorded” stand apart in the source; their conditions may differ.

Assays:
[1] = test system: Npc1^nmf164 homozygous mutant mice; experiment: Plasma lysozyme activity in HPβCD-treated Npc1^nmf164 mice; format: in vivo, mouse; details: once a week i.p. from age 21-27 days, plasma at 50-55 days, vs vehicle/untreated
[2] = test system: Npc1^nih Npc1^−/− mouse brain; experiment: qPCR of cathepsins and inflammatory markers in brain after HPβCD; format: in vivo
Source text: (§1) In mice, formalin fixed paraffin embedded tissue was sectioned (4-5 μm) and total RNA was isolated using RNeasy FFPE kit (Qiagen, Germantown, Md., USA) which included treatment with DNAse. Frozen human liver and cerebellum from 4 NPC patients and 4 age-, gender- and ethnicity-matched controls were obtained from the NICHD Brain and Tissue Bank for Developmental Disorders (University of Maryland, Baltimore, Md., USA), as approved by the Institutional Review Board (IRB), of the University of Notre Dame, Ind., USA (FWA 00002462). Total RNA was isolated using RNeasy kit (Qiagen, Germantown, Md., USA). Eluted RNA was further digested with RNase free DNaseI and re-purified using RNeasy column. The quality of RNA was checked using Bioanalyzer chip (Agilent Technologies, Santa Clara, Calif., USA) and quantity was determined using Nanodrop 2000 (Thermo Fisher Scientific, Waltham, Mass., USA). Quantitative PCR (qPCR) was performed using Power SYBR Green RNA-to-CT 1-Step Kit and an ABI Prism 7500 Fast real-time PCR system (Applied Biosystems, Grand Island, USA). Reaction was set in 20 μl using 100 nM primers and 5-100 ng total RNA as template. The thermal cycling parameters were as follows: step 1, 48° C. for 30 min; step 2, 95° C. for 10 min; step 3, 95° C. for 15 sec ° C.; step 4, 60° C. for 15 sec. Step 3-4 was repeated for 40 cycles followed by melt curve analysis. Specific amplification was validated by analysis of template titration, melt curves and agarose gel electrophoresis. In both mouse and human tissues, the mRNA levels were normalized to the housekeeping gene, Gapdh (Glyceraldehyde 3-phosphate dehydrogenase). Fold change was calculated by relative standard curve method after correcting PCR efficiency. In mice, the fold change in expression levels of different genes in Npc1^−/− was calculated relative to average levels of expression in Npc1^+/− mice. In human tissues, fold change in transcript expression in NPC liver and cerebellum was expressed relative to average expression in age-matched controls. Starting at P21 and once a week thereafter, Npc1^nih and Npc1^nmf164 mice were injected i.p with 20% 2-hydroxypropyl-beta-cyclodextrin (HPβCD, 4000 mg/Kg) prepared in 0.2% DMSO and 0.9% saline. Control mice received 0.2% DMSO in 0.9% saline. Blood was collected either via cheek bleed or terminal heart bleed from mice in EDTA tubes (BD Biosciences, San Jose, Calif., USA). Plasma was separated by centrifugation at 2500 rpm for 15 min and stored at −70° C. until used.

[3] = test system: Npc1^nih Npc1^−/− mouse liver; experiment: qPCR of cathepsins, inflammation and fibrosis markers in liver after HPβCD; format: in vivo
Source text: as §1

Npc1^nih Npc1^−/− mice [4] = experiment: Plasma lysozyme activity in HPβCD-treated Npc1^nih mice; format: in vivo, mouse
Method: Lysozyme activity in plasma was measured using fluorescence based lysozyme assay kit (EnzCheck, Life Technologies, Carlsbad, Calif., USA) as describer earlier (19). Plasma corresponding to 25 μg protein from female and male Npc1^nih mice was used in a 100 μl reaction volume. The reaction was carried out at 37° C. for 24 h. Fluorescence was read using excitation/emission of 494/518 nm in a multiwell plate reader spectramax M2 (Molecular devices, CA, USA). The values obtained were normalized by dividing the numbers by the mean value of lysozyme obtained among untreated Npc1^+/− mice. Purified chicken egg white lysozyme was used as a positive control. Starting at P21 and once a week thereafter, Npc1^nih and Npc1^nmf164 mice were injected i.p with 20% 2-hydroxypropyl-beta-cyclodextrin (HPβCD, 4000 mg/Kg) prepared in 0.2% DMSO and 0.9% saline. Control mice received 0.2% DMSO in 0.9% saline. Blood was collected either via cheek bleed or terminal heart bleed from mice in EDTA tubes (BD Biosciences, San Jose, Calif., USA). Plasma was separated by centrifugation at 2500 rpm for 15 min and stored at −70° C. until used.

Npc1^nih Npc1^−/− mice [5] = experiment: Plasma 24(S)-hydroxy cholesterol ELISA after HPβCD; format: in vivo, mouse
Method: Plasma 24-HC concentration was determined using ELISA kit from Enzo Life Sciences (Farmingdale, N.Y., USA) according to the manufacturer's instructions. Plasma was diluted to 1:1000 in supplied buffer and measurements were done in triplicate wells. Pure 24-HC (supplied with kit) was used to prepare the standard curve. 24-HC concentration was normalized to plasma protein content. Starting at P21 and once a week thereafter, Npc1^nih and Npc1^nmf164 mice were injected i.p with 20% 2-hydroxypropyl-beta-cyclodextrin (HPβCD, 4000 mg/Kg) prepared in 0.2% DMSO and 0.9% saline. Control mice received 0.2% DMSO in 0.9% saline. Blood was collected either via cheek bleed or terminal heart bleed from mice in EDTA tubes (BD Biosciences, San Jose, Calif., USA). Plasma was separated by centrifugation at 2500 rpm for 15 min and stored at −70° C. until used.

[6] = Npc1^nih Npc1^−/−, weekly HPβCD, at 80+ days

**Q.** How did the plasma lysozyme activity [1] turn out when `CC(O)COC[C@H]1O[C@@H]2O[C@H]3[C@H](O)[C@@H](O)[C@@H](O[C@H]4[C@H](O)[C@@H](O)[C@@H](O[C@H]5[C@H](O)[C@@H](O)[C@@H](O[C@H]6[C@H](O)[C@@H](O)[C@@H](O[C@H]7[C@H](O)[C@@H](O)[C@@H](O[C@H]8[C@H](O)[C@@H](O)[C@@H](O[C@H]1[C@H](O)[C@H]2O)O[C@@H]8COCC(C)O)O[C@@H]7COCC(C)O)O[C@@H]6COCC(C)O)O[C@@H]5COCC(C)O)O[C@@H]4COCC(C)O)O[C@@H]3COCC(C)O` (stereo partly drawn) [HPβCD, 2-hydroxypropyl-beta-cyclodextrin] was run?
**A.** The plasma lysozyme activity was “significantly reduced; also recorded: rendered comparable to untreated wild type animals”.

**Q.** What about the plasma lysozyme activity ([1]; listed as H∪CD) of the same molecule?
**A.** The plasma lysozyme activity was “decrease”.

**Q.** And the “Lyz1 expression in brain, fold elevation” value ([2]; HPβCD-treated Npc1^−/−, late stages, untreated ~81-fold)?
**A.** Its value is roughly 28 fold.

**Q.** And the “Gfap transcript in brain” value ([2]; HPβCD-treated Npc1^−/−, untreated ~9-fold)?
**A.** Its value is “slightly reduced”.

**Q.** What about the “Cd68 transcript in brain relative to Npc1^+/− mice” value ([2]; HPβCD-treated Npc1^−/−, untreated ~24-fold) of the same molecule?
**A.** The value was roughly 6 fold.

**Q.** What about the “Mip-1α transcripts in brain, fold increase” value ([2]; HPβCD-treated Npc1^−/−, untreated ~44-fold) of the same molecule?
**A.** The value was roughly 27 fold.

**Q.** What about the “transcripts of neuron specific 24-hydroxylase” value ([2]; NPC mouse brain, qPCR) of the same molecule?
**A.** Its value is “no effect”.

**Q.** And the “expression of Ctsb in brain” value ([2]; Npc1^−/− mice, qPCR)?
**A.** Its value is “returned to normal levels”.

**Q.** What about the “expression of Ctsd in brain” value ([2]; Npc1^−/− mice, qPCR) of the same molecule?
**A.** The value was “partial reduction”.

**Q.** What about the “expression of Ctss in brain” value ([2]; Npc1^−/− mice, qPCR) of the same molecule?
**A.** Its value is “partial reduction”.

**Q.** And the “expression of Cd68 in liver” value ([3]; Npc1^−/− mice)?
**A.** The value was “reduced to normal levels”.

**Q.** What about the “expression of Col1a in liver” value ([3]; Npc1^−/− mice) of the same molecule?
**A.** The value was “anomalous reduction”.

**Q.** And the “expression of Itgax in liver” value ([3]; Npc1^−/− mice)?
**A.** Its value is “reduced to normal levels”.

**Q.** And the “Lyz1 expression in liver” value ([3]; Npc1^−/− mice, late stages)?
**A.** Its value is “abrogated Lyz1 over expression; also recorded: restored lysozyme transcript and protein to normal levels”.

**Q.** And the “expression of Ctss in liver” value ([3]; late stage Npc1^−/− mice)?
**A.** Its value is “markedly reduced and equivalent to control mice”.

**Q.** And the “decrease of plasma lysozyme” value (Npc1^nih Npc1^−/− mice [4]; NPC mice, composite quartile analysis (FIG. 20B))?
**A.** The value was 50%.

**Q.** What about the plasma lysozyme activity (Npc1^nih Npc1^−/− mice [4]; Npc1^nih Npc1^−/−, weekly 4000 mg/Kg from P21, at 50-60 days) of the same molecule?
**A.** The plasma lysozyme activity was “reduced plasma lysozyme activity levels seen in wild type mice”.

**Q.** What about the “plasma lysozyme compared to mock treated animals” value (Npc1^nih Npc1^−/− mice [4]; [6]) of the same molecule?
**A.** The value was “reduction”.

**Q.** What about the “plasma lysozyme increase compared to normal animals” value (Npc1^nih Npc1^−/− mice [4]; [6]) of the same molecule?
**A.** Its value is 1.5 fold.

**Q.** And the “24(S)-HC level in plasma” value (Npc1^nih Npc1^−/− mice [5])?
**A.** Its value is “largely unaffected”.
